Consider one compound from patent US20050059585A1, “Methionine aminopeptidase-2 inhibitors and methods of use thereof” (Praecis Pharmaceuticals Inc., priority 2000, published 2005).

What all share (assay type): cell-based
Assay [1] has as its system human umbilical vein endothelial cells (HUVEC). The experiment in a line: human endothelial cell growth assay (Huvec assay). To be noted: Homo sapiens, HUVEC; read-out: IC50 (pM), Huvec Assay. As to the method: For the human endothelial cell growth assay, human umbilical vein endothelial cells (HUVEC) were maintained in Clonetics endothelial growth medium (EGM) in a 37° C. humidified incubator. Cells were detached with trypsin and pelleted by centrifugation at 300×g for 5 minutes at room temperature. HUVEC were added to 96-well plates at 5,000 cells/well. After incubating for 6 hours, the medium was replaced with 0.2 ml fresh EGM supplemented with 0.5 nM bFGF and the desired concentration of test angiogenesis inhibitor compound. Test angiogenesis inhibitor compounds were initially dissolved in ethanol at stock concentrations of either 10 mM or 0.1 mM, and subsequently diluted in EGM to obtain concentrations from […] to 10 μM. After 48 hours at 37° C., the medium was replaced with fresh bFGF-supplemented EGM and test angiogenesis inhibitor compound. Following incubation for an additional 48 hours at 37° C. MTT (3-[4,5-dimethylthiazol-2-yl]-2,5-diphenyl-tetrazolium bromide) was added to 1 mg/ml. After 2-4 hours at 37° C. the medium was replaced with 0.1 ml/well isopropanol. The plates were placed on a shaker for 15 minutes at room temperature and analyzed in a Labsystems Multiskan plate spectrophotometer at an optical density of 570 nm.

The test system of assay [2] is 786-0. The assay can be described thus: tumor cell line panel, SRB growth assay. The conditions noted are these: Homo sapiens; 786-0, Renal, 48 hours. As for the experimental part:
(§1) The compound of example 5 was also evaluated against a panel of cancer cell lines (Alley, M.C. et al. […] Cancer Research 48: 589-601; Grever, M. R., et al. (1992) Seminars in Oncology, Vol. 19, No. 6, pp 622-638; Boyd, M. R., and Paull, K. D. (1995) Drug Development Research 34: 91-109). The human tumor cell lines of the cancer screening panel were grown in RPMI 1640 medium containing 5% fetal bovine serum and 2 mM L-glutamine. Cells were inoculated into 96 well microtiter plates in 100 μL at plating densities ranging from 5,000 to 40,000 cells/well depending on the doubling time of individual cell lines. After cell inoculation, the microtiter plates were incubated at 37° C., 5 % CO2, 95 % air and 100 % relative humidity for 24 hours prior to addition of experimental drugs.
(§2) After the 24 hour incubation period, two plates of each cell line were fixed in situ with TCA, to represent a measurement of the cell population for each cell line at the time of drug addition (Tz). Experimental drugs were solubilized in dimethyl sulfoxide at 400-fold the desired final maximum test concentration and stored frozen prior to use. At the time of drug addition, an aliquot of frozen concentrate was thawed and diluted to twice the desired final maximum test concentration with complete medium containing 50 μg/ml gentamicin. Additional four, 10-fold or ½ log serial dilutions were made to provide a total of five drug concentrations plus control. Aliquots of 100 μl of these different drug dilutions were added to the appropriate microtiter wells already containing 100 μl of medium, resulting in the required final drug concentrations.
(§3) Following drug addition, the plates were incubated for an additional 48 hours at 37° C., 5 % CO2, 95 % air, and 100 % relative humidity. For adherent cells, the assay was terminated by the addition of cold TCA. Cells were fixed in situ by the gentle addition of 50 μl of cold 50 % (w/v) TCA (final concentration, 10% TCA) and incubated for 60 minutes at 4° C. The supernatant was discarded, and the plates were washed five times with tap water and air dried. Sulforhodamine B (SRB) solution (100 μl) at 0.4 % (w/v) in 1 % acetic acid were added to each well, and plates were incubated for 10 minutes at room temperature. After staining, unbound dye was removed by washing five times with 1 % acetic acid and the plates were air dried. Bound stain was subsequently solubilized with 10 mM trizma base, and the absorbance was read on an automated plate reader at a wavelength of 515 nm. For suspension of the cells, the methodology used was the same except that the assay was terminated by fixing settled cells at the bottom of the wells by gently adding 50 μl of 80 % TCA (final concentration, 16% TCA). Using the seven absorbance measurements [time zero, (Tz), control growth, (C), and test growth in the presence of drug at the five concentration levels (Ti)], the percentage growth was calculated at each of the drug concentrations levels.
(§4) Percentage growth inhibition was calculated as: [(Ti−Tz)/(C−Tz)]×100 for concentrations for which Ti>/=Tz [(Ti−Tz)/Tz]×100 for concentrations for which Ti<Tz.
(§5) Growth inhibition of 50% (GI50) was calculated from [(Ti−Tz)/(C−Tz)]×100=50, which is the drug concentration resulting in a 50% reduction in the net protein increase (as measured by SRB staining) in control cells during the drug incubation. The G150 was calculated for each of the cell lines if the level of activity is reached; however, if the effect was not reached or is exceeded, the value for that parameter is expressed as greater or less than the maximum (10^−4 M) or minimum (10^−8 M) concentration tested.
Background: The SRB assay estimates cell density from bound dye.

For assay [3], the system named is A498. The assay can be described thus: tumor cell line panel, SRB growth assay. To be noted: Homo sapiens; A498, Renal, 48 hours. As for the experimental part: as §1, §2, §3, §4, §5
In assay [4] the test system is HL-60(TB). The experiment in a line: tumor cell line panel, SRB growth assay. The conditions noted are these: Homo sapiens, Leukemia, 48 hours. As for the experimental part: as §1, §2, §3, §4, §5
In assay [5] the test system is M14. The assay can be described thus: tumor cell line panel, SRB growth assay. To be noted: Homo sapiens; M14, Melanoma, 48 hours. As to the method:
as §1, §2, §3, §4, §5

Assay [6] deals with MALME-3M. The assay can be described thus: tumor cell line panel, SRB growth assay. The conditions noted are these: Homo sapiens, Melanoma, 48 hours. As for the experimental part: as §1, §2, §3, §4, §5
For assay [7], the system named is NCI-H322M. The assay can be described thus: tumor cell line panel, SRB growth assay. To be noted: Homo sapiens, Non-Small Cell Lung, 48 hours. As for the experimental part: as §1, §2, §3, §4, §5
In assay [8] the test system is NCI-H460. The experiment in a line: tumor cell line panel, SRB growth assay. The conditions noted are these: Homo sapiens; NCI-H460, Non-Small Cell Lung, 48 hours. As for the experimental part: as §1, §2, §3, §4, §5
Assay [9] has as its system OVCAR-5. The experiment in a line: tumor cell line panel, SRB growth assay. To be noted: Homo sapiens; OVCAR-5, Ovarian, 48 hours. As for the experimental part: as §1, §2, §3, §4, §5
The test system of assay [10] is SN12C. The assay can be described thus: tumor cell line panel, SRB growth assay. To be noted: Homo sapiens, Renal, 48 hours. As for the experimental part:
as §1, §2, §3, §4, §5

The subject of assay [11] is SW-620. The experiment in a line: tumor cell line panel, SRB growth assay. The conditions noted are these: Homo sapiens; SW-620, Colon, 48 hours. As for the experimental part: as §1, §2, §3, §4, §5
Assay [12] has as its system TK-10. The assay can be described thus: tumor cell line panel, SRB growth assay. The conditions noted are these: Homo sapiens; TK-10, Renal, 48 hours. As to the method:
as §1, §2, §3, §4, §5

Assay [13] has as its system human lymphoblast SR cells. The assay can be described thus: Inhibition of SR cell line in culture, 3H-thymidine incorporation assay. As to the method: […] Incubations were conducted for 3, 5 or 6 days after which cell proliferation relative to vehicle treatment was determined using a ^3H-thymidine incorporation assay. Medium was replaced and fresh drug was added on day 3 for the 5 and 6 day assays.
On the technique in general: Uptake of a labelled nucleoside into DNA is a usual measure of proliferation.

For the compound `CO[C@@H]1[C@H](OC(=O)N[C@@H](C(N)=O)C(C)C)CC[C@]2(CO2)[C@H]1[C@@]1(C)O[C@@H]1CC=C(C)C` [Example 5, (1-Carbamoyl-2-methyl-propyl)-carbamic acid-(3R, 4S, 5S, 6R )-5-methoxy-4-[(2R, 3R)-2-methyl-3-(3-methyl-but-2-enyl)-oxiranyl]-1-oxa-spiro[2.5]oct-6-yl ester], in [1], the IC50 was 93 pM. Besides, the GI50 in assay [2] was 16.1 µM; in assay [3], over 100 µM; in assay [4] it was 21.7 µM; in [5] it was under 10 nM; in [6], 53.1 nM; in assay [7], 46.8 nM. Besides, the GI50 is under 10 nM in assay [8]; 13.5 nM in assay [9]; under 10 nM in [10]; over 100 µM in assay [11]; 54.3 nM in assay [12]; 0.5 nM in assay [13] (Homo sapiens, SR, 5 and 6 day assays). The “inhibition of proliferation of the SR cell line” value in assay [13] (concentrations from 1-100 nM, relative to vehicle) was 59-75%. Moreover, in [13] (five or six days of exposure), the Maximal inhibition result was “greater than 90%”.

Usually IC50 stands for the concentration that gives 50% inhibition. As a reminder, the GI50 is the concentration that inhibits growth by half.
